According to US20210179680A1, “POLYPEPTIDE, DERIVATIVES THEREOF, AND APPLICATION THEREOF IN PREPARATION OF DRUGS HAVING RESISTANCE TO PULMONARY FIBROSIS” (priority 2016, published 2021):
Bridge positions count the residues as written; N and C are the ends. Square brackets hold non-standard residues; d marks the D form. Peptide text beside a SMILES is read from it. S5 = C=CCCC[C@](C)(N)C(=O)O

Experiments:
[1] = α-helix ratio of polypeptides by circular dichroism; type: physicochemical; conditions: PBS solution, 1 mg/mL
Description: The α-helix ratio of the polypeptide was measured by a circular dichromatograph (purchased from Jasco, Japan). The polypeptides MR2, S1, S2, S3, S4, S5, S6, S7, S8, S9, S10 and S11 prepared in Example 1 were dissolved in PBS solution, and the working concentration of the circular dichromatograph was adjusted to 1 mg/mL. […] Among them, the α-helix ratio refers to the percentage of the number of peptide segments of the polypeptide that maintains the alpha helix of the secondary structure in the peptide segments of the total polypeptide.

[2] = biological target: T1, TRB3/MDM2 protein interaction (Homo sapiens, UniProt Q96RU7); assay: Co-immunoprecipitation: inhibition of binding of MDM2 to TRB3 in BEAS-2B cells; type: cell-based; conditions: BEAS-2B cells with TRB3 expression plasmid, 1 mg/mL polypeptide, 12 hours, co-IP with MDM2 antibody
T1 construct: host or cells: BEAS-2B
T1 sequence (Q96RU7 1-358): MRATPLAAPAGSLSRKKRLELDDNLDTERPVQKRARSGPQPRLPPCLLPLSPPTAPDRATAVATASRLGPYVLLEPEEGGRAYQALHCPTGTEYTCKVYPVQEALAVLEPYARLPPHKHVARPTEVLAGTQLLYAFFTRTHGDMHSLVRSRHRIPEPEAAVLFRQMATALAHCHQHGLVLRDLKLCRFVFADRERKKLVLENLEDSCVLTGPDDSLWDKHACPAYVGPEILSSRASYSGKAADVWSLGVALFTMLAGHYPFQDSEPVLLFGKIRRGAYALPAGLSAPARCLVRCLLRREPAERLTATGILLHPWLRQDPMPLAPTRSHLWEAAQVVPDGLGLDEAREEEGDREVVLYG
Description: 1. Human lung epithelial BEAS-2B cells (purchased from Institute of Basic Medical Sciences, Chinese Academy of Medical Sciences) were seeded in a 90 mm^2 culture dish. After the cells were adhered to the wall of culture dish, the TRB3 expression plasmid were transferred to the cells according to the method described in Example 5. After 24 hours, 1 mg/mL of the polypeptides MR2, S1, S2, S3, S4, S5, S6, S7, S8, S9, S10 or S11 prepared in Example 1 were added respectively, and the cells were incubated for 12 hours in a 37° C. incubator and then harvested.
2. Co-immunoprecipitation with MDM2 antibody was performed according to the method described in Example 3, followed by detection using TRB3 antibody.

[3] = tested on: mice with bleomycin-induced pulmonary fibrosis; assay: Lung weight index in mice with pulmonary fibrosis; type: in vivo, C57BL/6 mice; conditions: 2 mg/kg i.p., after 28 days, lung weight (mg) divided by body weight (g)
Description: (§1) Male C57BL/6 mice were fasted overnight, then anesthetized with 45 mg/kg sodium pentobarbital by injection intraperitoneally (i.p.), and intratracheally injected with bleomycin at a dose of 3 U/kg. The specific operation steps are as follows: cut the neck skin of the mouse with as little trauma as possible, expose the trachea with the assistance of elbow ophthalmic forceps, puncture the trachea and inject about 50 μL of bleomycin into the trachea with a microsyringe, rotate the mouse quickly and stand it upright for 5 minutes in order to make bleomycin evenly enter the left and right lobe, thereby constructing an animal model. The whole operation was performed at a surgical table at about […]. Mice in the sham operation group were intratracheally injected with an equal amount of physiological saline for injection.
Pulmonary fibrosis model was prepared according to the method described in Example 2, and administered in groups according to Table 3. After 28 days, the lungs of the mice were finely stripped and weighed, and a lung weight index was obtained from dividing the lung weight (mg) by the body weight (g) of the mice. […] In FIG. 7, “##” represents that P value is less than 0.01 when the lung weight index of administration group was compared with that of the sham operation group; “*” represents that P value is less than 0.05 when the lung weight index of administration group was compared with that of the bleomycin group; “**” represents that P value is less than 0.01 when the lung weight index of administration group was compared with that of bleomycin group.
Pulmonary fibrosis models were made according to the method described in Example 2 and administered in groups according to Table 9. After 28 days, the lungs of the mice were finely stripped and weighed, and the lung weight (mg) was divided by the body weight (g) of the mice to obtain a lung weight index. […] In FIG. 13, “##” represents that P value is less than 0.01 when the lung weight index of the administration groups were compared with that of the sham operation group; “*” represents that P value is less than 0.05 and “**” represents that P value is less than 0.01 when the lung weight index of the administration groups were compared with bleomycin group.

[4] = tested on: mice with bleomycin-induced pulmonary fibrosis; assay: Pulmonary function (Flexivent) in mice with pulmonary fibrosis; type: in vivo, C57BL/6 mice; conditions: 2 mg/kg i.p.
Description: as §1
(§2) Pulmonary function is a gold indicator for clinical detection of pulmonary fibrosis in patients. The decline of lung function is generally accompanied by an aggravation of fibrosis, while the improvement of lung function generally represents the recovery of lung tissue structure. Pulmonary fibrosis models were prepared according to the method described in Example 2 and administered in groups according to Table 3. On the 28th day after the construction of the animal model, the mice were anesthetized with sodium pentobarbital (45 mg/kg, i.p.). Lung function was tested by the Flexivent Small-animal respiratory mechanics and the testing methods were TLC and SnapShots (Testing method refers to Lv X, Wang X, Li K, et al. Rupatadine Protects against Pulmonary Fibrosis by Attenuating PAF-Mediated Senescence in Rodents [J]. PloS one, 2013, 8(7): e68631).
as §2, with “lung function also generally represents” for “lung function generally represents”, “to Table 9. 28 days later, the mice” for “to Table 3. On the 28th day after the construction of the animal model, the mice”, “Senescence in Rodents[J]. PloS one,” for “Senescence in Rodents [J]. PloS one,”

[5] = Table 3 groups, 28th day after model construction

Molecule: CSCC[C@H](NC(=O)[C@H](CC(C)C)NC(=O)[C@@H](N)Cc1c[nH]cn1)C(=O)N[C@@H](C)C(=O)N[C@@]1(C)CCCC=CCCC[C@@](C)(C(=O)N[C@@H](CCCCN)C(=O)N[C@@H](CCCCN)C(=O)N[C@@H](CC(C)C)C(=O)N[C@@H](CCCCN)C(=O)N[C@@H](CCCCN)C(=O)N[C@@H](CCCNC(=N)N)C(=O)O)NC(=O)[C@H](CS)NC(=O)[C@H]([C@@H](C)O)NC(=O)[C@H](Cc2ccccc2)NC1=O [S5, His-Leu-Met-Ala-S5-Phe-Thr-Cys-S5-Lys-Lys-Leu-Lys-Lys-Arg] (H-HLMA[S5]FTC[S5]KKLKKR-OH; staple 5-9; N-terminus and C-terminus assumed)
- α-helicity (%) [1]: 69.1%
- α-helix ratio compared with polypeptide MR2 (in words) [1]: significantly higher than that of polypeptide MR2
- interaction of TRB3 and MDM2 protein (FIG. 5, in words) [2]: interrupted
- Lung weight index ([3]; Table 3 groups): 8.575
- Dynamic compliance (mL/cmH2O) [4, 5]: 0.3117 mL/cmH2O
- Dynamic elasticity (cmH2O./mL) [4, 5]: 47.5 cmH2O./mL
- Dynamic resistance (cmH2O · s/Ml) [4, 5]: 0.85 cmH2O · s/Ml
- Inspiratory capacity [4, 5]: 0.738 mL
- pulmonary function of mice with pulmonary fibrosis (in words) ([4]; Table 3 groups, FIG. 11): improved

Molecule: CSCC[C@@H]1NC(=O)[C@@](C)(NC(=O)[C@@H](N)Cc2c[nH]cn2)CCCC=CCCC[C@@](C)(C(=O)N[C@H](C(=O)N[C@@H](CS)C(=O)N[C@@H](C)C(=O)N[C@@H](CCCCN)C(=O)N[C@@H](CCCCN)C(=O)N[C@@H](CC(C)C)C(=O)N[C@@H](CCCCN)C(=O)N[C@@H](CCCCN)C(=O)N[C@@H](CCCNC(=N)N)C(=O)O)[C@@H](C)O)NC(=O)[C@H](CS)NC(=O)[C@H](C)NC1=O [S2, His-S5-Met-Ala-Cys-S5-Thr-Cys-Ala-Lys-Lys-Leu-Lys-Lys-Arg] (H-H[S5]MAC[S5]TCAKKLKKR-OH; staple 2-6; N-terminus and C-terminus assumed)
- α-helicity (%) [1]: 25.7%
- α-helix ratio compared with polypeptide MR2 (in words) [1]: significantly higher than that of polypeptide MR2
- interaction of TRB3 and MDM2 protein (FIG. 5, in words) [2]: interrupted
- Lung weight index ([3]; Table 3 groups): 9.35
- Dynamic compliance (mL/cmH2O) [4, 5]: 0.2683 mL/cmH2O
- Dynamic elasticity (cmH2O./mL) [4, 5]: 55.33 cmH2O./mL
- Dynamic resistance (cmH2O · s/Ml) [4, 5]: 1.25 cmH2O · s/Ml
- Inspiratory capacity [4, 5]: 0.688 mL
- pulmonary function of mice with pulmonary fibrosis (in words) ([4]; Table 3 groups, FIG. 11): improved

Molecule: CSCC[C@H](NC(=O)[C@H](CC(C)C)NC(=O)[C@@H](N)Cc1c[nH]cn1)C(=O)N[C@@H](C)C(=O)N[C@@H](CS)C(=O)N[C@@H](Cc1ccccc1)C(=O)N[C@H](C(=O)N[C@@H](CS)C(=O)N[C@@]1(C)CCCC=CCCC[C@@](C)(C(=O)N[C@@H](CCCCN)C(=O)N[C@@H](CCCNC(=N)N)C(=O)O)NC(=O)[C@H](CC(C)C)NC(=O)[C@H](CCCCN)NC(=O)[C@H](CCCCN)NC1=O)[C@@H](C)O [S9, His-Leu-Met-Ala-Cys-Phe-Thr-Cys-S5-Lys-Lys-Leu-S5-Lys-Arg] (H-HLMACFTC[S5]KKL[S5]KR-OH; staple 9-13; N-terminus and C-terminus assumed)
- α-helicity (%) [1]: 44.0%
- α-helix ratio compared with polypeptide MR2 (in words) [1]: significantly higher than that of polypeptide MR2
- interaction of TRB3 and MDM2 protein (FIG. 5, in words) [2]: interrupted
- Lung weight index ([3]; Table 3 groups): 7.4125
- Dynamic compliance (mL/cmH2O) [4, 5]: 0.27 mL/cmH2O
- Dynamic elasticity (cmH2O./mL) [4, 5]: 44.5 cmH2O./mL
- Dynamic resistance (cmH2O · s/Ml) [4, 5]: 1.033 cmH2O · s/Ml
- Inspiratory capacity [4, 5]: 0.686 mL
- pulmonary function of mice with pulmonary fibrosis (in words) ([4]; Table 3 groups, FIG. 11): improved

Molecule: CSCC[C@@H]1NC(=O)[C@H](CC(C)C)NC(=O)[C@@](C)(N)CCCC=CCCC[C@@](C)(C(=O)N[C@@H](Cc2ccccc2)C(=O)N[C@H](C(=O)N[C@@H](CS)C(=O)N[C@@H](C)C(=O)N[C@@H](CCCCN)C(=O)N[C@@H](CCCCN)C(=O)N[C@@H](CC(C)C)C(=O)N[C@@H](CCCCN)C(=O)N[C@@H](CCCCN)C(=O)N[C@@H](CCCNC(=N)N)C(=O)O)[C@@H](C)O)NC(=O)[C@H](C)NC1=O [S1, S5-Leu-Met-Ala-S5-Phe-Thr-Cys-Ala-Lys-Lys-Leu-Lys-Lys-Arg] (H-[S5]LMA[S5]FTCAKKLKKR-OH; staple 1-5; N-terminus and C-terminus assumed)
- α-helicity (%) [1]: 39.5%
- α-helix ratio compared with polypeptide MR2 (in words) [1]: significantly higher than that of polypeptide MR2
- interaction of TRB3 and MDM2 protein (FIG. 5, in words) [2]: interrupted
- Lung weight index ([3]; Table 3 groups): 8.675
- Dynamic compliance (mL/cmH2O) [4, 5]: 0.2883 mL/cmH2O
- Dynamic elasticity (cmH2O./mL) [4, 5]: 52.17 cmH2O./mL
- Dynamic resistance (cmH2O · s/Ml) [4, 5]: 1.15 cmH2O · s/Ml
- Inspiratory capacity [4, 5]: 0.71 mL
- pulmonary function of mice with pulmonary fibrosis (in words) ([4]; Table 3 groups, FIG. 11): improved

Molecule: S20: chimeric polypeptide TAT-MR2, amino acid sequence SEQ ID NO: 20 (YGRKKRRQRRRGGHLMACFTCAKKLKKR; chimeric polypeptide TAT-MR2 S20)
- Lung weight index ([3]; Table 9 groups): 10.0625
- Dynamic compliance (mL/cmH2O) ([4]; Table 9 groups, 28 days later): 0.264 mL/cmH2O
- Dynamic elasticity (cmH2O./mL) ([4]; Table 9 groups, 28 days later): 52.17 cmH2O./mL
- Dynamic resistance (cmH2O · s/Ml) ([4]; Table 9 groups, 28 days later): 1.588 cmH2O · s/Ml
- Inspiratory capacity ([4]; Table 9 groups, 28 days later): 0.422 mL
- pulmonary function of mice with pulmonary fibrosis (in words) ([4]; Table 9 groups, FIG. 17): improved

Molecule: S19: chimeric polypeptide Pep2-MR2, amino acid sequence SEQ ID NO: 19 (HLYVSPWGGHLMACFTCAKKLKKR; chimeric polypeptide Pep2-MR2 S19)
- Lung weight index ([3]; Table 9 groups): 8.675
- Dynamic compliance (mL/cmH2O) ([4]; Table 9 groups, 28 days later): 0.33 mL/cmH2O
- Dynamic elasticity (cmH2O./mL) ([4]; Table 9 groups, 28 days later): 38.67 cmH2O./mL
- Dynamic resistance (cmH2O · s/Ml) ([4]; Table 9 groups, 28 days later): 1.143 cmH2O · s/Ml
- Inspiratory capacity ([4]; Table 9 groups, 28 days later): 0.692 mL
- pulmonary function of mice with pulmonary fibrosis (in words) ([4]; Table 9 groups, FIG. 17): improved

Molecule: S21: chimeric polypeptide Antp-MR2, amino acid sequence SEQ ID NO: 21 (RQIKIWFQNRRMKWKKGGHLMACFTCAKKLKKR; chimeric polypeptide Antp-MR2 S21)
- Lung weight index ([3]; Table 9 groups): 11.2125
- Dynamic compliance (mL/cmH2O) ([4]; Table 9 groups, 28 days later): 0.264 mL/cmH2O
- Dynamic elasticity (cmH2O./mL) ([4]; Table 9 groups, 28 days later): 55.33 cmH2O./mL
- Dynamic resistance (cmH2O · s/Ml) ([4]; Table 9 groups, 28 days later): 1.355 cmH2O · s/Ml
- Inspiratory capacity ([4]; Table 9 groups, 28 days later): 0.616 mL
- pulmonary function of mice with pulmonary fibrosis (in words) ([4]; Table 9 groups, FIG. 17): improved
